Values of other authors as cited in patent US6534540B2, “Combination and method of treatment of cancer utilizing a COX-2 inhibitor and a 3-hydroxy-3-methylglutaryl-coenzyme-a (HMG-CoA) reductase inhibitor” (priority 2000, dated 2003).

Legend:
[1] = test system: prostate cancer specimen; conditions: mice, prostate cancer specimen in vivo
[2] = test system: Prostate Cancer Cell Line LNCaP
[3] = molecular target: T1, COX-2 (Mus musculus, UniProt Q05769); conditions: in vivo
T1 sequence (Q05769 18-604): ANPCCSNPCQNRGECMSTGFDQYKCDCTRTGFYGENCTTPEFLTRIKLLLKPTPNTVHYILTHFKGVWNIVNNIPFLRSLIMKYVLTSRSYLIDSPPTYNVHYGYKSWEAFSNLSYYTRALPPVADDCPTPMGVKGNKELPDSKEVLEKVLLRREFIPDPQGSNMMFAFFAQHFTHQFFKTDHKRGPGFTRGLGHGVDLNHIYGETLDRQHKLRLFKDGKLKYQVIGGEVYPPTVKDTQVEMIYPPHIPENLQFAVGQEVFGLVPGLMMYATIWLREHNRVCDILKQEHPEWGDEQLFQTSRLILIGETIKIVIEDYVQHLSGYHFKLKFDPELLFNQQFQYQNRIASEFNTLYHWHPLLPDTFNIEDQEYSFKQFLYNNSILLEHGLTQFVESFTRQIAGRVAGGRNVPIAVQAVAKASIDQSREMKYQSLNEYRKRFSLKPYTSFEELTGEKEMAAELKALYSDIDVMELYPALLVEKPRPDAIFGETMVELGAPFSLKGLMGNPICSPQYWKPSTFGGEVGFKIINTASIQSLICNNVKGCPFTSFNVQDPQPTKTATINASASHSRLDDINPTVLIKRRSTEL

## CS(=O)(=O)Nc1ccc([N+](=O)[O-])cc1OC1CCCCC1 [NS398]
[1]
  angiogenesis: inhibit angiogenesis

## CC[C@H](C)C(=O)O[C@H]1C[C@@H](C)C=C2C=C[C@H](C)[C@H](CC[C@@H]3C[C@@H](O)CC(=O)O3)[C@H]21 [lovastatin]
[2]
  therapeutic value in prostate cancer: had therapeutic value in treating prostate cancer

## COc1cc(C2Oc3cc([C@H]4Oc5cc(O)cc(O)c5C(=O)[C@@H]4O)ccc3OC2CO)ccc1O (stereo partly drawn) [silybinin]
[3]
  COX-2 inhibition relative to COX-1 inhibition: significant COX-2 inhibition relative to COX-1 inhibition
